Test: excess molar enthalpy (molar enthalpy of mixing); xn = mol fraction of the nth substance listed
Conditions: 313.15 K, 101 kPa, Liquid, Flow calorimetry

COCC(C)O (stereo unspecified) [1-methoxy-2-propanol] + c1ccccc1
Conditions | excess molar enthalpy [kcal/mol]
x1 = 0.0455 | 0.0767
x1 = 0.0914 | 0.124
x1 = 0.1377 | 0.155
x1 = 0.1845 | 0.176
x1 = 0.2317 | 0.188
x1 = 0.2794 | 0.194
x1 = 0.3276 | 0.195
x1 = 0.3763 | 0.193
x1 = 0.4254 | 0.186
x1 = 0.475 | 0.179
x1 = 0.5251 | 0.167
x1 = 0.5758 | 0.153
x1 = 0.6269 | 0.139
x1 = 0.6786 | 0.122
x1 = 0.7308 | 0.103
x1 = 0.7835 | 0.084
x1 = 0.8368 | 0.0643
x1 = 0.8906 | 0.0434
x1 = 0.945 | 0.0216

CCCCOCCO [2-butoxyethan-1-ol] + C1CCCCC1
Conditions | excess molar enthalpy [kcal/mol]
x2 = 0.0414 | 0.0997
x2 = 0.0836 | 0.149
x2 = 0.1265 | 0.183
x2 = 0.1702 | 0.207
x2 = 0.2148 | 0.222
x2 = 0.2602 | 0.233
x2 = 0.3065 | 0.24
x2 = 0.3536 | 0.243
x2 = 0.4017 | 0.242
x2 = 0.4507 | 0.238
x2 = 0.5007 | 0.229
x2 = 0.5518 | 0.219
x2 = 0.6038 | 0.204
x2 = 0.6569 | 0.186
x2 = 0.7111 | 0.165
x2 = 0.7665 | 0.139
x2 = 0.823 | 0.11
x2 = 0.8807 | 0.077
x2 = 0.9397 | 0.0402

CCCCOCCO [2-butoxyethan-1-ol] + c1ccccc1
Conditions | excess molar enthalpy [kcal/mol]
x2 = 0.0343 | 0.0612
x2 = 0.0698 | 0.1
x2 = 0.1064 | 0.126
x2 = 0.1444 | 0.145
x2 = 0.1836 | 0.156
x2 = 0.2243 | 0.162
x2 = 0.2665 | 0.165
x2 = 0.3103 | 0.163
x2 = 0.3557 | 0.159
x2 = 0.4029 | 0.153
x2 = 0.452 | 0.144
x2 = 0.503 | 0.133
x2 = 0.5562 | 0.119
x2 = 0.6116 | 0.105
x2 = 0.6694 | 0.0891
x2 = 0.7297 | 0.0726
x2 = 0.7927 | 0.0544
x2 = 0.8586 | 0.0359
x2 = 0.9277 | 0.0175

COCC(C)O (stereo unspecified) [1-methoxy-2-propanol] + C1CCCCC1
Conditions | excess molar enthalpy [kcal/mol]
x1 = 0.0547 | 0.14
x1 = 0.109 | 0.213
x1 = 0.1626 | 0.261
x1 = 0.2158 | 0.295
x1 = 0.2684 | 0.319
x1 = 0.3205 | 0.333
x1 = 0.3721 | 0.341
x1 = 0.4232 | 0.344
x1 = 0.4738 | 0.341
x1 = 0.5239 | 0.335
x1 = 0.5736 | 0.321
x1 = 0.6227 | 0.305
x1 = 0.6715 | 0.283
x1 = 0.7197 | 0.258
x1 = 0.7675 | 0.227
x1 = 0.8149 | 0.191
x1 = 0.8618 | 0.15
x1 = 0.9083 | 0.105
x1 = 0.9544 | 0.0542
